Assay results published in patent US20200131144A1, “AMINE OR (THIO)AMIDE CONTAINING LXR MODULATORS” (Phenex-FXR GmbH, priority 2017, published 2020).

Tests used:
[1] = target: T1, GST-LXRβ ligand-binding domain (Homo sapiens, UniProt P55055, INS174Q); assay: TR-FRETβ activity assay (NCoA3 coactivator peptide recruitment); assay type: biochemical; conditions: 1 μM 24(S)-25-epoxycholesterol as prestimulating agonist; inverse agonist unless *
T1 construct: amino acids 156-461; NP009052; made in house; host or cells: E. coli
T1 sequence (P55055 with tags, fused parts or gaps INS174Q limits assumed): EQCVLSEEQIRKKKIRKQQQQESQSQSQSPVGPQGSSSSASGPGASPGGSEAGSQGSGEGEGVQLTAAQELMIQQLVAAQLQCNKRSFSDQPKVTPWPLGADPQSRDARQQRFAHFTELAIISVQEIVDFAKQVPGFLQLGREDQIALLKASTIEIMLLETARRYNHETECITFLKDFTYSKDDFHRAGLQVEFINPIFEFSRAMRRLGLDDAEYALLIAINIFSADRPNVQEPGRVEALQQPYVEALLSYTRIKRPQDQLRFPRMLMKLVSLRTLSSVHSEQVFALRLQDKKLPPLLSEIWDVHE
Summary of the method: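 Coactivator recruitment read as TR-FRET (ex 340, em 615 and 665 nm) after 1 h equilibration at 4° C, in triplicate. Mix held 76 nM GST-tagged LXRβ LBD (aa 156-461, E. coli), 400 nM biotin-NCoA3 peptide, Tb-cryptate anti-GST, streptavidin-XL665, 240 mM KCl buffer.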

LXRβ full length (FL) = target: T2, LXRβ full length (FL) (Homo sapiens, UniProt P55055, INS174Q); assay: LXR Gal4 reporter transient transfection assay, mammalian two-hybrid, FL-M2H Gal4β; assay type: cell-based; conditions: HEK293 cells; inverse agonist unless *
T2 construct: the full length (FL) proteins of LXRα (amino acids 1-447); NP005684; NP009052; expressed in transfected cells; host or cells: HEK293
T2 sequence (P55055 with tags, fused parts or gaps INS174Q): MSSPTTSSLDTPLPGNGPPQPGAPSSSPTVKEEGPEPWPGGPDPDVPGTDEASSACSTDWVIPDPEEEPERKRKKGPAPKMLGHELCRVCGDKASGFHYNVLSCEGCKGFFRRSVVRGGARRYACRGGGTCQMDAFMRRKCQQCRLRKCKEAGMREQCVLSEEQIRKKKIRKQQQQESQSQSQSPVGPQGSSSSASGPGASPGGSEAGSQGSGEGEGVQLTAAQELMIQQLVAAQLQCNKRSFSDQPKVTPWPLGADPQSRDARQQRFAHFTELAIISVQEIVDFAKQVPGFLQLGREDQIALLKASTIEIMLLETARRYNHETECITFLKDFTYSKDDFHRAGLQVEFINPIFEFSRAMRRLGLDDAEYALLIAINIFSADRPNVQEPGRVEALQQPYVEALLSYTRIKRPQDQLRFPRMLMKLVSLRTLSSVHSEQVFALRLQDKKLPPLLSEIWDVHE
Summary of the method: (§1)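 Mammalian two-hybrid read-out: interaction of LXRα or LXRβ (full length or ligand-binding domain, NFkB activation-domain fusions) with GAL4-fused SRC1 or NCoR domains drives GAL4-responsive firefly luciferase in HEK293 cells, normalised by Renilla cotransfection. Compounds given 4 h after transfection, ≤0.2% vehicle, cells lysed after 16 h.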

LXRα full length (FL) = target: T3, LXRα full length (FL) (Homo sapiens, UniProt Q13133); assay: LXR Gal4 reporter transient transfection assay, mammalian two-hybrid, FL-M2H Gal4α; assay type: cell-based; conditions: HEK293 cells; inverse agonist unless *
T3 construct: the full length (FL) proteins of LXRα (amino acids 1-447); NP005684; expressed in transfected cells; host or cells: HEK293
T3 sequence (Q13133 1-447): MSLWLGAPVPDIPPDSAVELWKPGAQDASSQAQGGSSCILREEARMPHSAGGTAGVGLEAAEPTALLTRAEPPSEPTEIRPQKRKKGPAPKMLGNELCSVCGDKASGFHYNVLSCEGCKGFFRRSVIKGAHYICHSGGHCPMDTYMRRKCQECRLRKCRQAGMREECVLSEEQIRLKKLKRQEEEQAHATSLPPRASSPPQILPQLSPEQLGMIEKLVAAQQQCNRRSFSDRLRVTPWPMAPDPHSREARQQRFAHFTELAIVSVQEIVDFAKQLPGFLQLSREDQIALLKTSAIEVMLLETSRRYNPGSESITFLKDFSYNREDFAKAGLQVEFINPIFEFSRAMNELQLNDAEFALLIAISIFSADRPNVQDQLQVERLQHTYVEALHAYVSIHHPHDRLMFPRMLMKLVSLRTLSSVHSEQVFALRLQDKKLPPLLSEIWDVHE
Summary of the method: as §1

SMILES	EC50 [1] [nM]	EC50 (LXRβ full length (FL)) [nM]	EC50 (LXRα full length (FL)) [nM]
Cc1nc2cccnc2c(C(=O)N(Cc2ccc(-c3cc(F)cc(C4(C(=O)O)CC4)c3)cc2)Cc2ccc(C(F)(F)F)o2)c1C [27/113]	100 to 1000	< 100	< 100
COc1cc(-c2cccc(C(C)(C)C(=O)O)c2)ncc1CN(Cc1ccc(C(F)(F)F)o1)C(=O)c1c(C)ccc2ccccc12 [27/85]	1000 to 10000	100 to 1000	100 to 1000
Cc1nc2cccnc2c(C(=O)N(Cc2ccc(C(F)(F)F)o2)Cc2ccc(-c3cccc(C(C)(C)C(=O)O)c3)cc2C#N)c1C [27/109]	1000 to 10000	100 to 1000	100 to 1000
Cc1cc(F)cc(C)c1C(=O)N(Cc1ccc(-c2cccc(C(C)(C)C(=O)O)c2)cc1)Cc1ccc(C(F)(F)F)o1 [27/49]	100 to 1000	< 100	< 100
Cc1ccc(CN(Cc2ccc(-c3cccc(C(C)(C)C(=O)O)c3)cc2)C(=O)c2c(C)c(C)nc3cccnc23)o1 [27/132]	1000 to 10000	< 100	100 to 1000
Cc1ccc2ccccc2c1C(=O)N(Cc1ccc(-c2cccc(S(=O)(=O)CC(=O)O)c2)cc1)Cc1ccc(C#N)o1 [27/2]	1000 to 10000	1000 to 10000	1000 to 10000
Cc1ccc2ccccc2c1C(=O)N(Cc1ccc(-c2cccc(C3(C(=O)O)CC3)c2)cc1)Cc1ccc(C(F)(F)F)o1 [27/75]	100 to 1000	< 100	< 100
Cc1ccc2ncnn2c1C(=O)N(Cc1ccc(-c2cccc(C(C)(C)C(=O)O)c2)cc1)Cc1ccc(C(F)(F)F)o1 [27/121]	< 100	< 100	< 100
Cc1nc2ccccc2c(C(=O)N(Cc2ccc(C(F)(F)F)o2)Cc2ncc(-c3cccc(C(C)C(=O)O)c3)cc2Cl)c1C (stereo not drawn) [27/90]	100 to 1000	< 100	< 100
Cc1cc(C)c(CN(Cc2ccc(-c3cccc(S(=O)(=O)CC(=O)NO)c3)cc2)Cc2ccc(C(F)(F)F)o2)c(C)c1 [Example 5, N-Hydroxy-2-((4′-((((5-(trifluoromethyl)furan-2-yl)methyl)(2,46-trimethylbenzyl)amino)methyl)-[1,1′-biphenyl]-3-yl)sulfonyl)acetamide]	100 to 1000	100 to 1000	100 to 1000
Cc1nc2cccnn2c1C(=O)N(Cc1ccc(-c2cccc(C(C)(C)C(=O)O)c2)cc1)Cc1ccc(C(F)(F)F)o1 [27/116]	1000 to 10000	100 to 1000	100 to 1000
COc1cc(CN(Cc2ccc(C(F)(F)F)o2)Cc2c(C)ccc3ccccc23)ccc1-c1cc(F)c(CO)c(S(=O)(=O)CC(=O)O)c1 [Example 22, 2-((5-Fluoro-4-(hydroxymethyl)-2′-methoxy-4′-((((2-methylnaphthalen-1-yl)methyl)((5-(trifluoromethyl)furan-2-yl)methyl)amino)methyl)-[1,1′-biphenyl]-3-yl)sulfonyl)acetic acid]	> 10000	100 to 1000	1000 to 10000
Cc1ccc2ccccc2c1C(=O)N(Cc1ccc(-c2cccc(S(=O)(=O)Cc3nnn[nH]3)c2)cc1)Cc1ccc(C(F)(F)F)o1 [Example 30, N-((3′-(((1H-Tetrazol-5-yl)methyl)sulfonyl)-1,1′-biphenyl-4-yl)methyl)-2-methyl-N-((5-(trifluoromethyl)furan-2-yl)methyl)-1-naphthamide]	100 to 1000	100 to 1000	100 to 1000
CC(C)(C(=O)O)c1cccc(-c2ccc(CN(Cc3ccc(C(F)(F)F)o3)Cc3cccc4c3CCOC4)cc2)c1 [27/15]	100 to 1000	< 100	< 100
CC(C)(C(=O)O)c1cccc(-c2ccc(CN(Cc3ccc(C(F)(F)F)o3)C(=O)c3c4ccccc4nc4ccccc34)cc2)c1 [27/31]	< 100	< 100	< 100
COc1cc(-c2cccc(S(=O)(=O)CC(=O)O)c2)ccc1CN(Cc1ccc(C(F)(F)F)o1)C(=O)c1c(C)ccc2ccccc12 [27/61]	1000 to 10000	100 to 1000	100 to 1000

SMILES	EC50 [1] [nM]	EC50 (LXRβ full length (FL)) [nM]	EC50 (LXRα full length (FL)) [nM]
Cc1ccc2ccccc2c1C(=O)N(Cc1ccc(C(F)(F)F)o1)Cc1c(F)cc(-c2cccc(C(C)(C)C(=O)O)c2)cc1Cl [27/6]	< 100	< 100	< 100
CN(C)c1ncc(CN(Cc2ccc(-c3cccc(C(C)(C)C(=O)O)c3)cc2)Cc2ccc(C(F)(F)F)o2)c2ccccc12 [27/18]	100 to 1000	< 100	< 100
COc1cnc2cccnc2c1C(=O)N(Cc1ccc(C(F)(F)F)o1)Cc1ccc(-c2cccc(C(C)(C)C(=O)O)c2)cc1Cl [27/124]	< 100	< 100	< 100
CCc1cc(C)c(CN(Cc2ccc(-c3cccc(C(C)(C)C(=O)O)c3)cc2)Cc2ccc(C(F)(F)F)o2)c(C)c1 [27/32]	< 100	< 100	< 100
Cc1nc2cnccc2c(C(=O)N(Cc2ccc(-c3cccc(C(C)(C)C(=O)O)c3)cc2)Cc2ccc(C(F)(F)F)o2)c1C [27/135]	100 to 1000	< 100	< 100
Cc1cc(C)c(CN(Cc2ccc(C(F)(F)F)o2)Cc2ccc(-c3cccc(S(=O)(=O)CC(=O)O)c3)cc2C)c(C)c1 [15/1]	1000 to 10000	100 to 1000	1000 to 10000
Cc1ccc2c(F)cccc2c1CN(Cc1ccc(-c2cccc(C(C)(C)C(=O)O)c2)cc1)Cc1ccc(C(F)(F)F)o1 [27/44]	100 to 1000	< 100	< 100
Cc1ccc2c(CN(Cc3ccc(-c4cccc(C(C)(C)C(=O)O)c4)cc3)Cc3ccc(C(F)(F)F)o3)c(C)ccc2c1 [27/21]	100 to 1000	< 100	< 100
Cc1cc(C(=O)N(Cc2ccc(C(F)(F)F)o2)Cc2ccc(-c3cccc(C(C)(C)C(=O)O)c3)cc2Cl)c2ncccc2n1 [27/123]	100 to 1000	< 100	< 100
Cc1ccc2ccccc2c1CN(Cc1ccc(-c2cccc([C@H](C)C(=O)O)c2)cc1)Cc1ccc(C(F)(F)F)o1 [27/73]	100 to 1000	< 100	< 100
Cc1ccc2ccccc2c1C(=O)N(CCc1cccc(Br)c1)Cc1ccc(-c2cccc(C(C)(C)C(=O)O)c2)cc1 [27/30]	1000 to 10000	< 100	100 to 1000
Cc1cc(C)c(CN(Cc2ccc(-c3cccc(S(=O)(=O)CC(=O)O)c3)cc2)C(C)c2ccc(C(F)(F)F)o2)c(C)c1 (stereo not drawn) [7/12]	1000 to 10000	100 to 1000	100 to 1000
O=C(O)CS(=O)(=O)c1cccc(-c2ccc(CN(Cc3ccc(C(F)(F)F)o3)Cc3c(Cl)cccc3Cl)cc2)c1 [7/10]	100 to 1000	100 to 1000	1000 to 10000
Cc1ccc2ccccc2c1C(=O)N(Cc1ccc(-c2cccc(S(=O)(=O)CC(=O)NS(C)(=O)=O)c2)cc1)Cc1ccc(C(F)(F)F)o1 [5/4]	100 to 1000	1000 to 10000	1000 to 10000
Cc1nc2cccnc2c(C(=O)N(Cc2ccc(-c3cccc(C(C)C(=O)O)c3)cc2)Cc2ccc(C(F)(F)F)o2)c1C (stereo not drawn) [27/110]	100 to 1000	< 100	< 100
COCc1c(C)cc(C)c(CN(Cc2ccc(-c3cccc(C(C)(C)C(=O)O)c3)cc2)Cc2ccc(C(F)(F)F)o2)c1C [27/71]	100 to 1000	< 100	< 100
